Consider 14 molecules from ChEMBL document CHEMBL4196094, “Structure-based design of bacterial transglycosylase inhibitors incorporating biphenyl, amine linker and 2-alkoxy-3-phosphorylpropanoate moieties” (Eur J Med Chem, 2018).

pIC50: −log10 of the molar value. Values after ≈ are worked out from the molar mass of the structure shown.

The target of test [1] is T1, Penicillin-binding protein 1B (Acinetobacter baumannii) (UniProt G1C7A4).
T1 sequence (whole entry): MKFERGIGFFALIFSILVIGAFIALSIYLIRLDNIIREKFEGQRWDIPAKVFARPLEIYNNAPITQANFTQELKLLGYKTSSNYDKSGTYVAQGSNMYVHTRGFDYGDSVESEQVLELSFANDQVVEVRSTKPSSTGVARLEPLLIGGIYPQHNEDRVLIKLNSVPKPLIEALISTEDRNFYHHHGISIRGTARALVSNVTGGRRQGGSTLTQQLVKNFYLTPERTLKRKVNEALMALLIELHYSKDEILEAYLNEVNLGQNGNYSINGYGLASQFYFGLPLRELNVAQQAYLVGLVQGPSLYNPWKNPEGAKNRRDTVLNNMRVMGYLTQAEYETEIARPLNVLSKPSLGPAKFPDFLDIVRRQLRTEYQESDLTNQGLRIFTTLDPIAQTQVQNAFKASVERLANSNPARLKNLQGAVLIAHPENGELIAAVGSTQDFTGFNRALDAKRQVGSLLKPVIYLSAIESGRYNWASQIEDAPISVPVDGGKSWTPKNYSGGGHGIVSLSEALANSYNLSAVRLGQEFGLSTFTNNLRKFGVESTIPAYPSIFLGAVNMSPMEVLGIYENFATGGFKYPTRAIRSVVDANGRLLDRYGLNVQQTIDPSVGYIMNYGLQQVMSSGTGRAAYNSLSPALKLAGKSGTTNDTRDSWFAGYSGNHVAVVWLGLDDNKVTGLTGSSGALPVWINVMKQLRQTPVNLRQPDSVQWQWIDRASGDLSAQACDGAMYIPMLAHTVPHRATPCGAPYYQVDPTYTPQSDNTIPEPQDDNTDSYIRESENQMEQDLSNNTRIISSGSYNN
The test can be described thus: Inhibition of Acinetobacter baumannii PBP1b transglycosylase activity at 500 uM using NBD-lipid 2 as substrate after 2 hrs by muramidase enzyme coupled HPLC analysis relative to control.

The target of test [2] is T1, Penicillin-binding protein 1B (Acinetobacter baumannii). Put plainly: Inhibition of Acinetobacter baumannii PBP1b transglycosylase activity at 200 uM using NBD-lipid 2 as substrate after 2 hrs by muramidase enzyme coupled HPLC analysis relative to control.
Test [3] concerns the target T2, Penicillin-binding protein 1B (Acinetobacter baumannii, UniProt G1C7A4).
T2 sequence (G1C7A4 whole entry): T1 sequence (whole entry)
The test can be described thus: Inhibition of Acinetobacter baumannii PBP1b transglycosylase activity using NBD-lipid 2 as substrate after 2 hrs by muramidase enzyme coupled HPLC analysis.

A further test deals with Staphylococcus aureus. Put plainly: Antibacterial activity against Staphylococcus aureus after 16 to 18 hrs. Type of test: functional.
Test [4] has as its target T1, Penicillin-binding protein 1B (Acinetobacter baumannii). Put plainly: Inhibition of Acinetobacter baumannii PBP1b transglycosylase activity at 1 uM using NBD-lipid 2 as substrate after 2 hrs by muramidase enzyme coupled HPLC analysis relative to control.

Consider `CCCCCCCCCCCCn1cc(CO[C@H](CP(=O)(O)OCCCNCc2ccc(-c3ccccc3)cc2)C(=O)OCC)nn1`, for which the inhibition in test [1] was 90%; in test [2], 34%. Moreover, the negative logarithm of the IC50 (pIC50) in test [3] was 3.63. This molecule yielded an MIC95 in the test with Staphylococcus aureus of 6.3 µM (≈ 4.23 µg/mL).
In test [1], `CCCCCCCCCCCCn1cc(CO[C@H](CP(=O)(O)OCCCN(Cc2ccc(-c3ccccc3)cc2)C(=O)OC(C)(C)C)C(=O)OCC)nn1` registered an inhibition of 33%.
Consider `CCCCCCCCCCCCn1cc(CO[C@H](CP(=O)(O)OCCCNC(=O)c2ccc(-c3ccccc3)cc2)C(=O)O)nn1`, for which the inhibition in test [1] was below 5%.
As to `CCCCCCCCCCCCn1cc(CO[C@H](CP(=O)(O)OCCCN(Cc2ccc(-c3ccccc3)cc2)C(=O)OCC(Cl)(Cl)Cl)C(=O)O)nn1`, the inhibition in test [1] is below 5%.
Consider `CCCCCCCCCCCCn1cc(CO[C@H](CP(=O)(O)OCCCN(C)Cc2ccc(-c3ccccc3)cc2)C(=O)OCC)nn1`, for which the inhibition in test [2] is 99%. This molecule also gave a pIC50 in test [3] of 3.82. For the same molecule, the MIC95 with Staphylococcus aureus amounted to 6.3 µM (≈ 4.31 µg/mL).
For `CCCCCCCCCCCCn1cc(CO[C@H](CP(=O)(O)OCCCNCc2ccc3ccccc3c2)C(=O)O)nn1`, the inhibition in test [1] came to 48%.
`CCCCCCCCCCCCn1cc(CO[C@H](CP(=O)(O)OCCNCc2ccc(-c3ccccc3)cc2)C(=O)OCC)nn1` came in with an inhibition in test [2] of 99%. Further, the negative logarithm of the IC50 (pIC50) in test [3] was 3.80. This molecule also returned an MIC95 against Staphylococcus aureus of 6.3 µM (≈ 4.14 µg/mL).
The corresponding values for `CCCCCCCCCCCCn1cc(CO[C@H](CP(=O)(O)OCCCN(Cc2ccc(-c3ccccc3)cc2)Cc2ccc(-c3ccccc3)cc2)C(=O)OCC)nn1` are 99%, 4.06 and above 400 µM.
Take `C=C(C/C=C(\C)CCC=C(C)C)CCC(C)(C)/C=C/CC/C(C)=C\CO[C@H](COP(=O)(O)O[C@H]1O[C@H](C(N)=O)[C@@](C)(O)[C@H](OC(N)=O)[C@H]1O[C@@H]1O[C@H](CO[C@@H]2O[C@H](CO)[C@@H](O)[C@H](O)[C@H]2O)[C@@H](O[C@@H]2O[C@H](C)[C@@H](O[C@@H]3O[C@H](C(=O)NC4=C(O)CCC4=O)[C@H](O)[C@H](O)[C@H]3O)[C@H](O)[C@H]2NC(C)=O)[C@H](O)[C@H]1NC(C)=O)C(=O)O`: the inhibition in test [4] was 100%.
For `CCCCCCCCCCCCn1cc(CO[C@H](CP(=O)(O)OCCCN(Cc2ccc(-c3ccccc3)cc2)C(=O)OCC(Cl)(Cl)Cl)C(=O)OCC)nn1`, in test [1], the inhibition came to 70%.
Take `CCCCCCCCCCCCn1cc(CO[C@H](CP(=O)(O)OCCCNCc2ccc3ccccc3c2)C(=O)OCC)nn1`: the inhibition in test [1] is 55%. The molecule also had an MIC95 in the test on Staphylococcus aureus of 6.3 µM (≈ 4.06 µg/mL).
With `CCCCCCCCCCCCn1cc(CO[C@H](CP(=O)(O)OCCCNC(=O)c2ccc(-c3ccccc3)cc2)C(=O)OCC)nn1`, in test [1], the inhibition was below 5%.
Regarding `CC1(C)S[C@@H]2[C@H](NC(=O)[C@H](N)c3ccccc3)C(=O)N2[C@H]1C(=O)O` [AMPICILLIN], the MIC95 against Staphylococcus aureus stood at 1.4 µM (≈ 0.489 µg/mL).
`CCCCCCCCCCCCn1cc(CO[C@H](CP(=O)(O)OCCCNCc2ccc(-c3ccccc3)cc2)C(=O)O)nn1` gave an inhibition in test [1] of 13%.

The inhibition is the drop in the measured response relative to a control, in per cent. Low readings indicate little suppression, high ones strong suppression. Broadly, the pIC50 is the IC50 on a negative log10 scale, so that one unit is a factor of ten. Low values mean a large IC50, high ones a small IC50.
